Molecules are shown by their SMILES. Activity calls are given as the source filed them. The rule behind the calls is not given here.

Experiment [1] can be described thus: Binding affinity to human His-tagged PAK4 (300 to 591 residues) L301A mutant expressed in Escherichia coli BL21 (DE3)pLysS by surface plasmon resonance assay.
For another experiment, the species on record is Homo sapiens. Put plainly: Binding affinity to human His-tagged PAK4 (300 to 591 residues) L301A mutant expressed in Escherichia coli BL21 (DE3)pLysS in presence of staurosporine by ligand observed NMR competitive assay.

Take `c1c(Nc2nc(N3CCCCC3)nc3[nH]ncc23)n[nH]c1C1CC1`: the Kd in experiment [1] was determined as 0.05 µM. Consider `CNC(=O)c1cnn2ccc(C#N)cc12`, for which the outcome in the experiment listed under Homo sapiens was Active. In experiment [1], `NS(=O)(=O)c1cccc2cnccc12` registered a Kd of 300 µM. On the same count and under the same terms, to `Nc1cccc2ncccc12` belongs 510 µM.

The values above are taken from ChEMBL document CHEMBL5104209 (RSC Med Chem, 2022).
